Measured values published in patent publication US5210193A, “Piperazine derivatives” (American Cyanamid Company, priority 1990, dated 1993).
Like-named read-outs stand apart in the source and are kept apart here.

Assays:
Assay in all cases: in vitro antibacterial MIC, agar plate dilution
Type in all cases: cell-based
[1] = test system: Enterobacter aerogenes VGH 84-36; conditions: Klebsiella aerogenes, VGH8436, 18 hours, 35° C., read-out: MIC
Protocol: (§1) The in vitro antimicrobial spectrum of the compounds of ths invention were determined by the agar plate dilution method with Mueller-Hinton agar and an inoculum of each test organism of approximately 10^4 colony forming units delivered by the Steers replicating device. The minimal inhibitory concentration (MIC) in mcg/ml is defined as the lowest concentration of test compound that inhibited visible growth after 18 hours incubation at 35° C. Results are given in Table I, with the test compounds identified by the number of their hereinafter described examples.

[2] = test system: Enterobacter cloacae K 84-10; conditions: Enterobacter cloacae, K8410, 18 h, 35° C., read-out: MIC
Protocol: as §1

[3] = test system: Enterobacter cloacae VGH 84-37; conditions: Enterobacter cloacae, VGH8437, 18 h, 35° C., read-out: MIC
Protocol: as §1

[4] = test system: Escherichia coli ATCC 25922; conditions: 35° C.
Protocol: as §1

[5] = test system: Escherichia coli CMC 84-11; conditions: 35° C.
Protocol: as §1

[6] = test system: Escherichia coli CMC 84-16; conditions: Escherichia coli, CMC8416, 18 h, 35° C., read-out: MIC
Protocol: as §1

Escherichia coli NAR 311 = conditions: NAR311, 18 hours, 35° C., read-out: MIC
Protocol: as §1

[7] = test system: Escherichia coli PRNT 311; conditions: PRNT311, 18 hours, 35° C., read-out: MIC
Protocol: as §1

[8] = test system: Klebsiella oxytoca MOR 84-28; conditions: MOR8428, 18 hours, 35° C.
Protocol: as §1

Klebsiella pneumoniae AD = conditions: Klebsiella pneumoniae, 18 h, 35° C., read-out: MIC
Protocol: as §1

[9] = test system: Klebsiella pneumoniae MOR 84-4; conditions: Klebsiella pneumoniae, MOR844, 18 h, 35° C., read-out: MIC
Protocol: as §1

[10] = test system: Morganella morganii CMC 84-37; conditions: 35° C.
Protocol: as §1

[11] = test system: Morganella morganii VGH 84-11; conditions: VGH8411, 18 hours, 35° C., read-out: MIC
Protocol: as §1

[12] = test system: Proteus rettgeri CMC 84-41; conditions: Providencia rettgeri, CMC8441, 18 h, 35° C., read-out: MIC
Protocol: as §1

[13] = test system: Pseudomonas aeruginosa LL-1244; conditions: 35° C.
Protocol: as §1

[14] = test system: Pseudomonas aeruginosa VGH 84-4; conditions: 35° C.
Protocol: as §1

[15] = test system: Serratia marcescens F 0-35; conditions: Serratia marcescens, F035, 18 h, 35° C., read-out: MIC
Protocol: as §1

[16] = test system: Serratia marcescens K 84-18; conditions: 35° C.
Protocol: as §1

[17] = test system: Staphylococcus Spp saprophiticus VGH 84-50; conditions: 18 hours, 35° C., read-out: MIC
Protocol: as §1

[18] = test system: Staphylococcus aureus ATTC 29213; conditions: 35° C.
Protocol: as §1

[19] = test system: Staphylococcus aureus CMC 83-127; conditions: Staphylococcus aureus, CMC83127, 18 h, 35° C., read-out: MIC
Protocol: as §1

[20] = test system: Staphylococcus aureus CMC 83-128; conditions: CMC83128, 18 hours, 35° C., read-out: MIC
Protocol: as §1

[21] = test system: Staphylococcus aureus Smith; conditions: 35° C.
Protocol: as §1

[22] = test system: Staphylococcus aureus VGH 84-45; conditions: 35° C.
Protocol: as §1

[23] = test system: Staphylococcus aureus VGH 84-46; conditions: Staphylococcus aureus, VGH8446, 18 h, 35° C., read-out: MIC
Protocol: as §1

[24] = test system: Staphylococcus epidermidis CMC 83-135; conditions: CMC83135, 18 hours, 35° C., read-out: MIC
Protocol: as §1

[25] = test system: Staphylococcus epidermidis IO 83-58; conditions: IO8358, 18 hours, 35° C., read-out: MIC
Protocol: as §1

[26] = test system: Staphylococcus epidermidis VGH 84-40; conditions: VGH8440, 18 hours, 35° C., read-out: MIC
Protocol: as §1

[27] = test system: Streptococcus faecalis ATTC 29212; conditions: Enterococcus faecalis, ATTC29212, 18 hours, 35° C., read-out: MIC
Protocol: as §1

[28] = test system: Streptococcus faecalis VGH 84-65; conditions: 35° C.
Protocol: as §1

[29] = Escherichia coli, ATCC25922, 18 h, read-out: MIC
[30] = Escherichia coli, CMC8411, 18 h, read-out: MIC
[31] = Morganella morganii, CMC8437, 18 h, read-out: MIC
[32] = Pseudomonas aeruginosa, LL1244, 18 h, read-out: MIC
[33] = Pseudomonas aeruginosa, VGH844, 18 h, read-out: MIC
[34] = Serratia marcescens, K8418, 18 h, read-out: MIC
[35] = Staphylococcus aureus, ATTC29213, 18 h, read-out: MIC
[36] = Staphylococcus aureus, 18 h, read-out: MIC
[37] = Staphylococcus aureus, VGH8445, 18 h, read-out: MIC
[38] = Enterococcus faecalis, VGH8465, 18 h, read-out: MIC

Measured: MIC

CCCCCCOCC1CN(c2cc3c(cc2F)c(=O)c(C(=O)O)cn3CC)CCN1C (stereo not drawn) [Example 78, 1-Ethyl-6-fluoro-7-[3-[(hexyloxy)methyl]-4-methyl-1-piperazinyl]-1,4-dihydro-4-oxo-3-quinolinecarboxylic acid]
2 µg/mL: [26]
64 µg/mL: [1] | [2] | [3] | [8] | Klebsiella pneumoniae AD | [9] | [12]
32 µg/mL: [4]; [29] | [5]; [30] | [6] | [10]; [31] | [11]
256 µg/mL: Escherichia coli NAR 311
4 µg/mL: [18]; [35] | [20] | [23] | [24]
8 µg/mL: [17] | [21]; [36] | [22]; [37] | [25]
1 µg/mL: [19]
> 256 µg/mL: [13]; [32] | [14]; [33] | [15] | [16]; [34]
16 µg/mL: [7] | [27] | [28]; [38]

CCCCCCOCC1CN(c2cc3c(cc2F)c(=O)c(C(=O)O)cn3CC)CCN1 (stereo not drawn) [Example 77, 1-Ethyl-6-fluoro-7-[3-[(hexyloxy)methyl]-1-piperazinyl]-1,4-dihydro-4-oxo-3-quinolinecarboxylic acid]
0.5 µg/mL: [20] | [22]; [37] | [23]
32 µg/mL: Escherichia coli NAR 311
16 µg/mL: [16]; [34]
8 µg/mL: [8] | [12] | [15] | [27] | [28]; [38]
128 µg/mL: [14]; [33]
> 256 µg/mL: [13]; [32]
1 µg/mL: [18]; [35] | [24] | [25]
2 µg/mL: [4]; [29] | [5]; [30] | [6] | [7] | [17] | [21]; [36]
0.25 µg/mL: [19] | [26]
4 µg/mL: [1] | [2] | [3] | Klebsiella pneumoniae AD | [9] | [10]; [31] | [11]

O=C(O)c1cn(C2CC2)c2cc(N3CCNC(c4ccsc4)C3)c(F)cc2c1=O (stereo not drawn) [Example 60]
0.25 µg/mL: Escherichia coli NAR 311
4 µg/mL: [13]; 18 hours
0.5 µg/mL: [14]; 18 hours
< 0.12 µg/mL: [1] | [2] | [3] | [4]; 18 hours | [5]; 18 hours | [6] | [7] | [8] | Klebsiella pneumoniae AD | [9] | [10]; 18 hours | [11] | [12] | [15] | [16]; 18 hours | [17] | [18]; 18 hours | [19] | [20] | [21]; 18 hours | [22]; 18 hours | [23] | [24] | [25] | [26] | [27] | [28]; 18 hours

CCCCCCCCCCCCOCC1CN(c2cc3c(cc2F)c(=O)c(C(=O)O)cn3CC)CCN1C (stereo not drawn) [Example 75, 7-[3-[(Dodecyloxy)methyl]-4-methyl-1-piperazinyl]-1-ethyl-6-fluoro-1,4-dihydro-4-oxo-3-quinolinecarboxylic acid]
> 256 µg/mL: [1] | [2] | [3] | [4]; [29] | [5]; [30] | [6] | Escherichia coli NAR 311 | [7] | [8] | Klebsiella pneumoniae AD | [9] | [10]; [31] | [11] | [12] | [13]; [32] | [14]; [33] | [15] | [16]; [34] | [17] | [18]; [35] | [19] | [20] | [21]; [36] | [22]; [37] | [23] | [24] | [25] | [26] | [27] | [28]; [38]

CCn1cc(C(=O)O)c(=O)c2cc(F)c(N3CCN(C)CC3)c(F)c21 [Example 61, 1-Ethyl-6,8-difluoro=1,4-dihydro-7-(4-methyl-1-piperazinyl)-4-oxo-3-quinolinecarboxylic acid]
4 µg/mL: [13]; [32]
0.12 µg/mL: [12] | [15] | [19] | [22]; [37]
0.5 µg/mL: Escherichia coli NAR 311 | [14]; [33] | [18]; [35] | [20]
< 0.015 µg/mL: [4]; [29] | [6]
0.25 µg/mL: [21]; [36] | [23] | [24] | [25] | [26]
2 µg/mL: [17] | [27] | [28]; [38]
0.06 µg/mL: [8] | Klebsiella pneumoniae AD | [9] | [10]; [31] | [11] | [16]; [34]
0.03 µg/mL: [1] | [2] | [3] | [5]; [30] | [7]

CCCCCCCCCCCCOCC1CN(c2cc3c(cc2F)c(=O)c(C(=O)O)cn3CC)CCN1 (stereo not drawn) [Example 74, 7-[3-[(Dodecyloxy)methyl]-1-piperazinyl]-1-ethyl-6-fluoro-1,4-dihydro-4-oxo-3-quinolinecarboxylic acid]
32 µg/mL: [19]
128 µg/mL: [18]; [35] | [20] | [21]; [36] | [22]; [37] | [23] | [24] | [25] | [27] | [28]; [38]
> 256 µg/mL: [1] | [2] | [3] | [4]; [29] | [5]; [30] | [6] | Escherichia coli NAR 311 | [7] | [8] | Klebsiella pneumoniae AD | [9] | [10]; [31] | [11] | [12] | [13]; [32] | [14]; [33] | [15] | [16]; [34]
64 µg/mL: [17] | [26]
